# Reference: patent publication US5317086A, “Cysteine proteinase inhibitors and inhibitor precursors” (The Regents of the University of California, priority 1992, dated 1994)
# Non-standard residues stand in square brackets, D forms with d. Residues, ends and D or L forms follow the SMILES beside them. ξ: configuration not given here. *: point of attachment. MeOSuc = COC(=O)CCC(=O)*; ξF = NC(Cc1ccccc1)C(=O)O
# Molecular target: T1, papain (Carica papaya, UniProt P00784)
# T1 construct: purchased Sigma
# T1 sequence (P00784 134-345): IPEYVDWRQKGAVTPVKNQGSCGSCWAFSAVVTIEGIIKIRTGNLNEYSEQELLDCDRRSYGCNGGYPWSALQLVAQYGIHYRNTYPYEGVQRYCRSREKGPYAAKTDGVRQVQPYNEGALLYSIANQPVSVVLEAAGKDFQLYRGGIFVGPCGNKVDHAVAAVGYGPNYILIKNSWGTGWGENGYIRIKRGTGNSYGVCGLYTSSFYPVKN
# Test: Irreversible inhibition of papain (preincubation and 3000-fold dilution assay)
# Format: biochemical
# Details: control; 0.020 μM (666Ki) incubated with papain, diluted to (0.2 Ki); over 2.5 hr
# Experimental: Papain (Sigma, 2x recrystallized) (1 mg/mL) was activated at 25° C. for 30 min prior to use in a solution of 0.1mM EDTA, 0.5 mM L-cysteine hydrochloride, and 0.06 mM mercaptoethanol, and was then diluted (20 μL to 1.0 mL) and stored at 4° C. for use in the assays. The cysteine and mercaptoethanol buffers were prepared fresh daily. The standard assay conditions consisted of 50 mM phosphate, 0.2 M NaCl, 5 mM EDTA, 2 mM dithiothreitol (DTT), 0.2% bovine serum albumin (BSA) and 20% CH3 CN, pH 6.5. However, these concentrations were obtained by dilution of a buffer of 100 mM phosphate, 0.4 M NaCl, 10 mM EDTA, 4 mM DTT at pH 6.5 to a final volume of 1 mL with the necessary amounts of CH3 CN and H2 O. The DTT and BSA were added fresh daily to the phosphate buffer. Kinetic measurements were performed by monitoring the fluorescence of 7-amino-4-methylcoumarin (MCA) [1 (excitation) 350 nm, 1 (emission) 460 nm] released upon hydrolysis of the substrate, CbzPheArgMCA. […] The Km was determined in duplicate runs by fitting rate vs. [S] using the program ENZFITTER. […]
# The incomplete deactivation can be attributed to the increasing amounts of aldehyde present over time, which as a reversible inhibitor protects papain against alkylation. The dilution assay also provided evidence that the inhibition measured in the reversible assay was not due to trace amounts of aldehyde contamination. […]
smiles,measurement,value
COC(=O)CCC(=O)NC(Cc1ccccc1)C(=O)NCC=O (stereo not shown) [MeOSucPheGlyCHO] (MeOSuc-[ξF]-Gly-aldehyde),loss of papain activity,8%
